PubChem BioAssay (NCI)
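Tested at 5 concentrations; 48 h exposure; 96-well plates; endpoints linearly interpolated, else capped at highest concentration. TGI: total growth inhibition.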 Where a SMILES comes first, the peptide text is derived from it. The star is where a group is joined. Boc = CC(C)(C)OC(=O)*; OBn = c1ccc(CO*)cc1; Bn = c1ccc(C*)cc1

Assays:
Assay in all cases: DTP human tumour cell line panel, 48 h
SK-MEL-28 melanoma = test system: SK-MEL-28 melanoma
MALME-3M melanoma = test system: MALME-3M melanoma
EKVX NSCLC = test system: EKVX NSCLC
ACHN renal = test system: ACHN renal
T-47D breast = test system: T-47D breast
COLO 205 colon = test system: COLO 205 colon
SK-MEL-2 melanoma = test system: SK-MEL-2 melanoma
SF-295 CNS = test system: SF-295 CNS
RXF 393 renal = test system: RXF 393 renal
UACC-257 melanoma = test system: UACC-257 melanoma

Row | SMILES | TGI (SK-MEL-28 melanoma) [µM] | TGI (MALME-3M melanoma) [µM] | TGI (EKVX NSCLC) [µM] | TGI (ACHN renal) [µM] | TGI (T-47D breast) [µM] | TGI (COLO 205 colon) [µM] | TGI (SK-MEL-2 melanoma) [µM] | TGI (SF-295 CNS) [µM] | TGI (RXF 393 renal) [µM] | TGI (UACC-257 melanoma) [µM]
1 | Clc1ccc2nc3c(c(-c4ccccc4)nn3-c3ccccc3)c(-c3ccccc3)c2c1 | > 100 | > 100 | > 100 | > 100 | > 100 | > 100 | > 100 | > 100 |  | 
2 | CC12CCC3=C(CSC4=C3CSc3ccccc34)C1=CCCC2=O (stereo not drawn) | > 100 | > 100 | > 100 | > 100 |  | 45.8 | > 100 |  | > 100 | 
3 | Oc1cccc(-c2cc(=S)ss2)c1 | 43.8 | 32.5 | 31.5 | 30.1 |  | 35.6 | 30.5 | 29.5 | 40.5 | 28.4
4 | O=C1N2CCN=C2c2ccccc2C1(O)c1ccccc1 (stereo not drawn) | > 100 |  | > 100 | > 100 | > 100 | > 100 |  | > 100 |  | > 100
5 | COc1c2c(cc3oc(=O)ccc13)OC(C)(C)C=C2 | 75.9 | 87.8 | > 125 | 70 | 23.6 | 73.6 | 51.1 | > 125 |  | 85.2
6 | CCOC(=O)Cn1c(=O)c2cc(C)cc3c(Cl)nc4c(OC)c(OC)cc1c4c32 | > 100 | > 100 | > 100 | > 100 |  | > 100 | > 100 | > 100 | > 100 | > 100
7 | CCCc1c(OC)c(O)c2c(=O)cc(OC)c3c4c(OC)cc(=O)c5c(O)c(OC)c(CCC)c(c1c23)c54 | 21.1 | 10.7 | 15.3 | 17 |  | 14.9 | 22.1 | 31.6 |  | > 100
8 | c1ccc(C[P+]2(c3ccccc3)CCCCC2)cc1 | > 100 | > 100 | > 100 | > 100 |  | > 100 | > 100 | > 100 | > 100 | > 100
9 | O=C1CCCn2c3ccccc3c3ccnc1c32 | > 100 | > 100 | > 85.2 |  |  | > 100 | > 100 | > 100 | 68.8 | > 56.1
10 | CS(=O)(=O)c1nc(-c2cc3c(c(S(C)(=O)=O)n2)CCC3)cc2c1CCC2 | > 100 |  | > 100 | > 100 |  | > 100 | > 100 | > 100 | > 100 | > 100
11 | C/C(=N\NC(=S)N/N=C(\C)c1ccccn1)c1ccccn1 | > 100 | > 100 | 84.3 | 5.7 | > 100 | > 100 |  | > 100 |  | > 100
12 | CSCC[C@@H](NC(=O)[C@H](CC(C)C)NC(=O)C(Cc1cnc[nH]1)NC(=O)CNC(=O)[C@@H](NC(=O)[C@H](C)NC(=O)[C@H](Cc1cn(C=O)c2ccccc12)NC(=O)[C@H](CCC(N)=O)NC(=O)[C@@H](N)CC(N)=O)C(C)C)C(N)=O (stereo partly drawn) | > 100 | > 100 | > 100 |  |  | > 100 | > 100 | > 100 | > 100 | > 100
13 | COc1cc(/C=C/C(=O)OC[C@]23O[C@H]2[C@@H](OC2OC(C)C(O)C(O)C2O)C2C=CO[C@@H](OC4OC(CO)C(O)C(O)C4O)C23)ccc1O (stereo partly drawn) | > 100 | > 100 | > 100 | > 100 | > 100 | > 100 | > 100 | > 100 |  | 
14 | Nc1c(Cl)ncnc1NCC1(CO)CCC1 | > 100 | > 100 | > 100 | > 100 |  | > 100 | > 100 | > 100 |  | > 100
15 | CC(=O)Nc1ccc(S(=O)(=O)/N=c2/sc(S(N)(=O)=O)nn2C)cc1 | > 100 | > 100 | > 100 | > 100 |  | > 100 | > 100 | > 100 | > 100 | 
16 | CC1(C)OC2C(CO)OC(/N=C(\NC#N)Oc3ccccc3)C2O1 (stereo not drawn) | > 100 |  | > 100 | > 100 |  | > 100 |  | > 100 | > 100 | > 100
17 | O=c1[nH]/c(=C/c2cccs2)c(=O)[nH]/c1=C/c1ccc(OCc2ccccc2)cn1 | > 100 | 0.726 | > 100 | > 100 |  | 12.5 | > 52.2 | 0.119 | 3.88 | > 75
18 | CSc1nc(NC2CC2)c2c(n1)Sc1nc3ccccc3n1N=C2 | > 100 | 50.9 | 98.7 | 31.1 |  | > 100 | 82.4 |  |  | > 100
19 | CC(C)CC(NC(=O)C(CCC(=O)OCc1ccccc1)NC(=O)OC(C)(C)C)C(=O)NC(COCc1ccccc1)C(=O)NC(Cc1ccccc1)C(=O)O (stereo not drawn) (Boc-E(OBn)LS(Bn)F-OH; configuration not given here) | > 100 | > 100 | > 100 | > 100 |  | > 100 | > 100 |  | > 100 | > 100
